In patent publication US20220229065A1, “SENSORS AND METHODS FOR RAPID MICROBIAL DETECTION” (BAMBU VAULT LLC, priority 2019, published 2022):
Values belong to the compound of their own block, whether it stands above or below them.

Columns and labels:
[1] = Additives that stabilize the dye within the particles; type: physicochemical; settings: antioxidant additive in polymer matrix
Description: The loading of dyes within the particles is as high as possible without degrading the cohesion of the polymer. The additives that stabilize the dye within the particles have been studied.

[2] = Retention of Epolight 1117 tetrakis aminium dye in particles during emulsification and evaporation; type: physicochemical; settings: retention in the particles during emulsion and evaporation process; surfactant as labelled
Description: In the emulsion method of encapsulation, a surfactant is necessary to help keep the emulsion stable. While Aerosol® TR-70 (sodium bis(tridecyl) sulfosuccinate) could be used as an emulsifier to prepare polymer particles encapsulating Epolight™ 1117 tetrakis aminium dye, TR-70 only provided limited stabilization effects on the tetrakis aminium dye. […] Reducing the amount of SDS in the aqueous phase led to lower Epolight™ 1117 retention and larger particle size (Table 2).

chymotrypsin = assay: Reaction of Formula (12) conjugate with chymotrypsin (color change, selectivity control); type: biochemical; settings: 1.0 mg in 0.3 mL DMSO + 25 μL chymotrypsin
Description: (§1) In four different vials, compound 4 (1.0 mg in each vial) was dissolved in DMSO (0.3 mL). To one vial, 25 μL of β-lactamase blend was added. To another vial 25 μL PBS was added as the negative control. To the other two vials 25 μL of papain and chymotrypsin were added separately.

papain = target: T1, papain (Carica papaya, UniProt P00784); assay: Reaction of Formula (12) conjugate with papain (color change, selectivity control); type: biochemical; settings: 1.0 mg in 0.3 mL DMSO + 25 μL papain
T1 sequence (P00784 134-345): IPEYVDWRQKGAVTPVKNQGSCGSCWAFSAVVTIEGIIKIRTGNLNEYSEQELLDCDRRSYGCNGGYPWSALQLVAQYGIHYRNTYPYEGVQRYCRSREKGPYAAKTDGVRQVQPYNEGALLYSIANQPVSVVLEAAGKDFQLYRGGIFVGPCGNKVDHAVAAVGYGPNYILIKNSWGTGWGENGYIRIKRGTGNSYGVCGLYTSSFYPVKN
Description: as §1

β-lactamase blend = assay: Reaction of Formula (12) conjugate with β-lactamase (color change in vial); type: biochemical
Description: as §1

[3] = 1.0 mg in 0.3 mL DMSO + 25 μL β-lactamase blend

- impact on dye stability within the particles [1]: positive impact
SMILES: Cc1cc(C(C)(C)C)c(O)c(C)c1Cn1c(=O)n(Cc2c(C)cc(C(C)(C)C)c(O)c2C)c(=O)n(Cc2c(C)cc(C(C)(C)C)c(O)c2C)c1=O [Cyanox® 1790, 1,3,5-tris(4-tert-butyl-3-hydroxy-2,6-dimethylbenzyl)-1,3,5-triazine-2,4,6-(1H,3H,5H)-trione]

- % Epolight ™ 1117 Retention [2]: 85-90%
SMILES: CCCCCCCCCCCCOS(=O)(=O)[O-].[Na+] [Sodium dodecyl sulfate, sodium dodecyl sulfate]

- % Epolight ™ 1117 Retention [2]: 50%
SMILES: CCCCCCCCCCCCCOC(=O)CC(C(=O)OCCCCCCCCCCCCC)S(=O)(=O)O.[Na] (centres unmarked) [TR-70, sodium bis(tridecyl) sulfosuccinate]

- color change after papain addition (papain): slightly changed color to light brown
- color change with PBS (negative control, no enzyme) (β-lactamase blend; 1.0 mg in 0.3 mL DMSO + 25 μL PBS): did not change color at all
- time to very strong color change after β-lactamase addition (β-lactamase blend; [3]): less than 5 minutes
SMILES: COc1ccc(COC(=O)C2=C(CSc3ccc4c(c3)Oc3cc(SCC5=C(C(=O)OCc6ccc(OC)cc6)N6C(=O)[C@H](NC(=O)Cc7ccccc7)[C@@H]6SC5)ccc3C43OC(=O)c4ccccc43)CS[C@H]3[C@@H](NC(=O)Cc4ccccc4)C(=O)N23)cc1 [compound 4]
- color change after chymotrypsin addition (chymotrypsin): almost no color change even after 30 minutes
- color change after β-lactamase addition (onset) (β-lactamase blend; [3]): started changing color from light yellow to brownish-red within a minute
